# Laboratory results from patent US9969687B2, “Compounds useful as CCR9 modulators” (Norgine B.V., priority 2013, dated 2018).
# Legend:
# [1] = target: T1, CCR9 (Homo sapiens (Human), UniProt P51686); test: FLIPR calcium flux assay using hCCR9 over expressed cells (Chem1-hCCR9), TECK stimulation; format: cell-based; conditions: Chem1-hCCR9 overexpressing cells
# Protocol: Biological Activity: FLIPR Assay Using hCCR9 Over Expressed Cells
# A calcium flux assay was used to determine the ability of the compounds to interfere with the binding between CCR9 and its chemokine ligand (TECK) in Chem1-hCCR9 overexpressing cells. hCCR9 overexpressing cells were seeded (25,000 cells/well) into black Poly-D-Lysine coated clear bottom 96-well plates (BD Biosciences, Cat #356640) and incubated overnight at 37° C./5% CO2 in a humidified incubator. Media was aspirated and cells washed twice with 100 μL assay buffer (1×HBSS, 20 mM HEPES) containing 2.5 mM Probenecid. A 0.3× Fluo-4 NW calcium dye was prepared in assay buffer containing 5 mM Probenecid and stored in the dark. Each well was loaded with 100 μL of 0.3× Fluo-4 NW calcium dye and incubated at 37° C./5% CO2 for 60 minutes and then at room temperature for 30 minutes. A half-log serially diluted concentration response curve was prepared at a 3× final assay concentration for each compound (10 μM-0.1 nM final assay concentration) and 50 μL of the compound then transferred to the cells (150 μL final volume) for 60 minutes prior to stimulation (30 minutes at 37° C./5% CO2 and 30 minutes at room temperature). TECK was diluted to 4× its EC80 in assay buffer (containing 0.1% [w/v] bovine serum albumin [BSA]) and 50 μL dispensed through the fluorometric imaging plate reader (FLIPR) instrument to stimulate the cells (200 μL final volume). The increase in intracellular calcium levels was measured with the FLIPR instrument. The potency of the compound as a CCR9 antagonist was calculated as an IC50 using GraphPad Prism software (variable slope four parameter). The Ki of the compound was determined from the IC50 values using the following equation. IC50/1+(Agonist (TECK) conc. used in assay/EC50 of agonist (TECK) generated on day of experiment) Ki calculation: […]
# [2] = target: T1, CCR9; test: FLIPR calcium flux assay using MOLT4 cells, TECK stimulation; format: cell-based; conditions: MOLT4 cells (human T-cell line)
# Protocol: Biological Activity: FLIPR Assay Using MOLT4 Cells
# A calcium flux assay was used to determine the ability of the compounds to interfere with the binding between CCR9 and its chemokine ligand (TECK) in MOLT4 cells (a human T-cell line). MOLT4 cells were seeded (100,000 cells/well) in corning cell culture plates (Cat #3603) in assay buffer (1×HBSS, 20 mM HEPES) containing 2.5 mM Probenecid. The plate was centrifuged at 1200 rpm for 3 minutes and incubated at 37° C./5% CO2 for 2 hours. A 0.3× Fluo-4 NW calcium dye was prepared in assay buffer containing 5 mM Probenecid and stored in the dark. Each well was loaded with 25 μl of 0.3× Fluo-4 NW calcium dye and incubated at 37° C./5% CO2 for 60 minutes and then at room temperature for 30 minutes. A half-log serially diluted concentration response curve was prepared at a 4× concentration for each (10 μM-0.1 nM final assay concentration) and 25 μL of the compound then transferred to the cells (100 μL final volume) for 60 minutes prior to stimulation (30 minutes at 37° C./5% CO2 and 30 minutes at room temperature). […] The increased in intracellular calcium levels was measured with the FLIPR instrument. The potency of the compound as CCR9 antagonist was calculated as an IC50 using GraphPad Prism software (variable slope four parameter). The Ki of the compound was determined from the IC50 values using the following equation. IC50/1+(Agonist (TECK) conc. used in assay/EC50 of agonist (TECK) generated on day of experiment) Ki calculation: […]
# T1 sequence (P51686 whole entry): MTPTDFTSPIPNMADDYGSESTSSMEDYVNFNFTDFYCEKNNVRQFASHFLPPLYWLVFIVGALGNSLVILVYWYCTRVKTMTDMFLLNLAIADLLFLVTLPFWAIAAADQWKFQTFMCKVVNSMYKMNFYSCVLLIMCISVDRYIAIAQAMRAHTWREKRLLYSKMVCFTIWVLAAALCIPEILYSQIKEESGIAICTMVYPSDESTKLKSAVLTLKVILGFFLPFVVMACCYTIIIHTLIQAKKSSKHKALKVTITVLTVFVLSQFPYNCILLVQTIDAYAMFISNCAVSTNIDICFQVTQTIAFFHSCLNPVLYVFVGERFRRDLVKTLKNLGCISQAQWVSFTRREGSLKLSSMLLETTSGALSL
Ki [1] [nM],Ki [2] [nM],SMILES
17,18,CC(C)(C)c1ccc(S(=O)(=O)Nc2ccc(C#N)c3c2C(=O)N(Cc2ccccn2)C3=O)cc1 [Compound 279]
61,23,Cc1nccnc1N1C(=O)c2c(Cl)ccc(NS(=O)(=O)c3ccc(C(C)(C)C)cc3)c2C1=O [Compound 270]
32,14,Cc1ccc(N2C(=O)c3c(Cl)ccc(NS(=O)(=O)c4ccc(C(C)(C)C)cc4)c3C2=O)c(C)[n+]1[O-] [Compound 227]
49,23,Cc1ccnc(N2C(=O)c3c(Cl)ccc(NS(=O)(=O)c4ccc(C(C)(C)C)cc4)c3C2=O)n1 [Compound 216]
25,11,Cc1cnc(C)c(N2C(=O)c3c(Cl)ccc(NS(=O)(=O)c4ccc(C(C)(C)C)cc4)c3C2=O)c1 [Compound 263]
54,32,Cc1cnc(N2C(=O)c3c(Cl)ccc(NS(=O)(=O)c4ccc(C(C)(C)C)cc4)c3C2=O)cn1 [Compound 275]
21,16,Cn1ccc(CN2C(=O)c3c(Cl)ccc(NS(=O)(=O)c4ccc(C(C)(C)C)cc4)c3C2=O)n1 [Compound 193]
3,7,CC(C)(C)c1ccc(S(=O)(=O)Nc2ccc(Cl)c3c2C(=O)N(c2ccsc2C#N)C3=O)cc1 [Compound 232]
135,44,"COC(=O)c1sccc1N1C(=O)c2c(Cl)ccc(NS(=O)(=O)c3ccc(C(C)(C)C)cc3)c2C1=O [Compound 155, methyl 3-(4-((4-(tert-butyl)phenyl)sulfonamido)-7-chloro-1,3-dioxoisoindolin-2-yl)thiophene-2-carboxylate]"
337,192,N#Cc1cccc(N2C(=O)c3c(Cl)ccc(NS(=O)(=O)c4ccc(C(F)(F)F)cc4)c3C2=O)c1 [Compound 121]
61,33,COc1ccc[n+]([O-])c1N1C(=O)c2c(Cl)ccc(NS(=O)(=O)c3ccc(C(C)(C)C)cc3)c2C1=O [Compound 211]
16,24,Cc1ccncc1CN1C(=O)c2c(Cl)ccc(NS(=O)(=O)c3ccc(C(C)(C)C)cc3)c2C1=O [Compound 208]
51,54,Cc1ccnc(N2C(=O)c3c(Cl)ccc(NS(=O)(=O)c4ccc(C(C)(C)C)cc4)c3C2=O)c1 [Compound 225]
92,45,CC(C)(C)c1ccc(S(=O)(=O)Nc2ccc(Cl)c3c2C(=O)N(c2cc(C#N)ccn2)C3=O)cc1 [Compound 200]
57,16,CC(C)(C)c1ccc(S(=O)(=O)Nc2ccc(Cl)c3c2C(=O)N(c2sccc2C#N)C3=O)cc1 [Compound 179]
242,128,CCOc1cncc(N2C(=O)c3c(Cl)ccc(NS(=O)(=O)c4ccc(C(C)(C)C)cc4)c3C2=O)c1 [Compound 103]
23,3,CC(C)(C)c1ccc(S(=O)(=O)Nc2ccc(Cl)c3c2C(=O)N(c2ccsc2C(=O)O)C3=O)cc1 [Compound 288]
12,7,CC(C)(C)c1ccc(S(=O)(=O)Nc2ccc(Cl)c3c2C(=O)N(Cc2ccc[nH]c2=O)C3=O)cc1 [Compound 284]
94,123,COc1ccc(CN2C(=O)c3c(Cl)ccc(NS(=O)(=O)c4ccc(C(C)(C)C)cc4)c3C2=O)cn1 [Compound 235]
72,17,Cn1cnc(N2C(=O)c3c(Cl)ccc(NS(=O)(=O)c4ccc(C(C)(C)C)cc4)c3C2=O)n1 [Compound 255]
119,46,Cc1cc(CN2C(=O)c3c(Cl)ccc(NS(=O)(=O)c4ccc(C(C)(C)C)cc4)c3C2=O)c[n+]([O-])c1 [Compound 262]

Ki [1] [nM],Ki [2] [nM],SMILES
12,4,Cn1cncc1N1C(=O)c2c(Cl)ccc(NS(=O)(=O)c3ccc(C(C)(C)C)cc3)c2C1=O [Compound 192]
397,53,O=C1c2c(Cl)ccc(NS(=O)(=O)c3ccc(C(F)(F)F)cc3)c2C(=O)N1c1cn[nH]c1 [Compound 149]
13,6,"Cc1c(N2C(=O)c3c(Cl)ccc(NS(=O)(=O)c4ccc(C(C)(C)C)cc4)c3C2=O)ccc[n+]1[O-] [Compound 176, 3-(4-(4-(tert-butyl)phenylsulfonamido)-7-chloro-1,3-dioxoisoindolin-2-yl)-2-methylpyridine 1-oxide]"
51,78,COc1ncccc1CN1C(=O)c2c(Cl)ccc(NS(=O)(=O)c3ccc(C(C)(C)C)cc3)c2C1=O [Compound 247]
269,115,O=C1c2c(Cl)ccc(NS(=O)(=O)c3ccc(C(F)(F)F)cc3)c2C(=O)N1Cc1cccnc1 [Compound 66]
23,9,Cn1cc(N2C(=O)c3c(Cl)ccc(NS(=O)(=O)c4ccc(C(C)(C)C)cc4)c3C2=O)ccc1=O [Compound 282]
10,22,"CC(C)(C)c1ccc(S(=O)(=O)Nc2ccc(Cl)c3c2C(=O)N(c2cccnc2C(=O)O)C3=O)cc1 [Compound 287, 3-(4-((4-(tert-butyl)phenyl)sulfonamido)-7-chloro-1,3-dioxoisoindolin-2-yl)picolinic acid]"
23,7,Cc1ccncc1N1C(=O)c2c(Cl)ccc(NS(=O)(=O)c3ccc(C(C)(C)C)cc3)c2C1=O [Compound 185]
21,25,CCc1c(OC)cncc1N1C(=O)c2c(Cl)ccc(NS(=O)(=O)c3ccc(C(C)(C)C)cc3)c2C1=O [Compound 257]
36,30,CC(C)(C)c1ccc(S(=O)(=O)Nc2ccc(Cl)c3c2C(=O)N(c2cccc(C#N)n2)C3=O)cc1 [Compound 207]
14,10,"CCOC(=O)c1ncccc1N1C(=O)c2c(Cl)ccc(NS(=O)(=O)c3ccc(C(C)(C)C)cc3)c2C1=O [Compound 286, ethyl 3-(4-((4-(tert-butyl)phenyl)sulfonamido)-7-chloro-1,3-dioxoisoindolin-2-yl)picolinate]"
343,158,"CC(C)(C)c1ccc(S(=O)(=O)Nc2ccc(Cl)c3c2C(=O)N(Cc2cccc(C#N)c2)C3=O)cc1 [Compound 126, 4-(tert-butyl)-N-(7-chloro-2-(3-cyanobenzyl)-1,3-dioxoisoindolin-4-yl)benzenesulfonamide]"
30,7,CC(C)(C)c1ccc(S(=O)(=O)Nc2ccc(Cl)c3c2C(=O)N(Cc2ncccn2)C3=O)cc1 [Compound 204]
78,16,Cc1cc(N2C(=O)c3c(Cl)ccc(NS(=O)(=O)c4ccc(C(C)(C)C)cc4)c3C2=O)cn(C)c1=O [Compound 285]
776,456,Cc1ccc(NS(=O)(=O)c2ccc(C(C)(C)C)cc2)c2c1C(=O)N(Cc1cccnc1)C2=O [Compound 160]
21,19,Cc1cccc(N2C(=O)c3c(Cl)ccc(NS(=O)(=O)c4ccc(C(C)(C)C)cc4)c3C2=O)[n+]1[O-] [Compound 233]
1240,479,"CC(C)(C)c1ccc(S(=O)(=O)Nc2cccc3c2C(=O)N(c2cccnc2)C3=O)cc1 [Compound 1, 4-tert-Butylphenylsulfonic acid (1,3-dioxo-2-(pyridin-3-yl)-2,3-dihydro-1H-isoindol-4-yl)-amide]"
15,5,COC(=O)c1cc(N2C(=O)c3c(Cl)ccc(NS(=O)(=O)c4ccc(C(C)(C)C)cc4)c3C2=O)n(C)n1 [Compound 291]
138,83,COc1cccc(N2C(=O)c3c(Cl)ccc(NS(=O)(=O)c4ccc(C(C)(C)C)cc4)c3C2=O)c1 [Compound 138]
20,15,Cc1cc(C)c(CN2C(=O)c3c(Cl)ccc(NS(=O)(=O)c4ccc(C(C)(C)C)cc4)c3C2=O)c(=O)[nH]1 [Compound 283]
